Consider 29 molecules from US9676757B2, “Heterocyclic compounds as NaV channel inhibitors and uses thereof” (Merck Patent GmbH, priority 2014, dated 2017).

This experiment has as its target Nav1.6 (Homo sapiens, UniProt Q9UQD0). The experiment in a line: Nav two-pulse protocol, IonWorks Quattro electrophysiology. The class given is cell-based. As to conditions: -120 mV to 0 mV, compound incubated 300 s. As for the experimental part:
Compound Plate Preparation
Supplied compounds were sent as Assay Ready Plates, with 2 μL per well of compound in DMSO at 300× the final assay concentrations as described above and in the project proposal. All assay plates are stored at in a −80° C. freezer.
On the day of the assay, 198 μL of external solution was added to the appropriate assay plate and mixed thoroughly. This provided a 1:100 dilution. A further 1:3 dilution occurred upon addition to the cells in the IonWorks, giving a 1:300 dilution in total.
On each assay plate, at least 8 wells were reserved for vehicle control (0.3% DMSO) and at least 8 wells for each positive control specific to the cell line tested. The positive controls were tested in an 8-point dose response with 3-fold dilutions to determine an IC50 value for each run. The positive control compounds are outlined below.
Ion Channel Positive Control & Concentrations
Nav1.6/1.2 Lidocaine: 8, 3-fold dilutions starting at 100 μM
Electrophysiological Recording Solutions
The solutions for recording currents were are follows:
Amphotericin B was used to obtain electrical access to the cell interior at a final concentration of 200 μg/ml in internal recording solution.
Experimental Protocols & Data Analysis
Nav currents were evoked by stepping from a holding potential of −120 mV to 0 mV for 2.5 s (pulse 1), followed by a 5 ms inter-pulse interval, and stepping from a holding potential of −120 mV to 0 mV for 20 ms (pulse 2). The voltage protocol was applied (Pre), compounds added, incubated for 300 seconds, and the voltage protocol was applied a final time (Post) on the IonWorks Quattro.
The parameters measured were the maximum inward current evoked on stepping to 0 mV from the 1st and 2nd pulse. All data were filtered for seal quality, seal drop, and current amplitude. The peak current amplitude (Peak) was calculated before (Pre) and after (Post) compound addition to the amount of block was assessed by dividing the Post-compound current amplitude by the Pre-compound current amplitude. These procedures were implemented for the 1st and 2nd pulse.
Background: The patch-clamp technique gives a direct electrical read-out from membranes.

pIC50: −log10 of the molar value. Like-named read-outs stand apart in the source and are kept apart here.

Nav1.6, sequence (Q9UQD0 whole entry): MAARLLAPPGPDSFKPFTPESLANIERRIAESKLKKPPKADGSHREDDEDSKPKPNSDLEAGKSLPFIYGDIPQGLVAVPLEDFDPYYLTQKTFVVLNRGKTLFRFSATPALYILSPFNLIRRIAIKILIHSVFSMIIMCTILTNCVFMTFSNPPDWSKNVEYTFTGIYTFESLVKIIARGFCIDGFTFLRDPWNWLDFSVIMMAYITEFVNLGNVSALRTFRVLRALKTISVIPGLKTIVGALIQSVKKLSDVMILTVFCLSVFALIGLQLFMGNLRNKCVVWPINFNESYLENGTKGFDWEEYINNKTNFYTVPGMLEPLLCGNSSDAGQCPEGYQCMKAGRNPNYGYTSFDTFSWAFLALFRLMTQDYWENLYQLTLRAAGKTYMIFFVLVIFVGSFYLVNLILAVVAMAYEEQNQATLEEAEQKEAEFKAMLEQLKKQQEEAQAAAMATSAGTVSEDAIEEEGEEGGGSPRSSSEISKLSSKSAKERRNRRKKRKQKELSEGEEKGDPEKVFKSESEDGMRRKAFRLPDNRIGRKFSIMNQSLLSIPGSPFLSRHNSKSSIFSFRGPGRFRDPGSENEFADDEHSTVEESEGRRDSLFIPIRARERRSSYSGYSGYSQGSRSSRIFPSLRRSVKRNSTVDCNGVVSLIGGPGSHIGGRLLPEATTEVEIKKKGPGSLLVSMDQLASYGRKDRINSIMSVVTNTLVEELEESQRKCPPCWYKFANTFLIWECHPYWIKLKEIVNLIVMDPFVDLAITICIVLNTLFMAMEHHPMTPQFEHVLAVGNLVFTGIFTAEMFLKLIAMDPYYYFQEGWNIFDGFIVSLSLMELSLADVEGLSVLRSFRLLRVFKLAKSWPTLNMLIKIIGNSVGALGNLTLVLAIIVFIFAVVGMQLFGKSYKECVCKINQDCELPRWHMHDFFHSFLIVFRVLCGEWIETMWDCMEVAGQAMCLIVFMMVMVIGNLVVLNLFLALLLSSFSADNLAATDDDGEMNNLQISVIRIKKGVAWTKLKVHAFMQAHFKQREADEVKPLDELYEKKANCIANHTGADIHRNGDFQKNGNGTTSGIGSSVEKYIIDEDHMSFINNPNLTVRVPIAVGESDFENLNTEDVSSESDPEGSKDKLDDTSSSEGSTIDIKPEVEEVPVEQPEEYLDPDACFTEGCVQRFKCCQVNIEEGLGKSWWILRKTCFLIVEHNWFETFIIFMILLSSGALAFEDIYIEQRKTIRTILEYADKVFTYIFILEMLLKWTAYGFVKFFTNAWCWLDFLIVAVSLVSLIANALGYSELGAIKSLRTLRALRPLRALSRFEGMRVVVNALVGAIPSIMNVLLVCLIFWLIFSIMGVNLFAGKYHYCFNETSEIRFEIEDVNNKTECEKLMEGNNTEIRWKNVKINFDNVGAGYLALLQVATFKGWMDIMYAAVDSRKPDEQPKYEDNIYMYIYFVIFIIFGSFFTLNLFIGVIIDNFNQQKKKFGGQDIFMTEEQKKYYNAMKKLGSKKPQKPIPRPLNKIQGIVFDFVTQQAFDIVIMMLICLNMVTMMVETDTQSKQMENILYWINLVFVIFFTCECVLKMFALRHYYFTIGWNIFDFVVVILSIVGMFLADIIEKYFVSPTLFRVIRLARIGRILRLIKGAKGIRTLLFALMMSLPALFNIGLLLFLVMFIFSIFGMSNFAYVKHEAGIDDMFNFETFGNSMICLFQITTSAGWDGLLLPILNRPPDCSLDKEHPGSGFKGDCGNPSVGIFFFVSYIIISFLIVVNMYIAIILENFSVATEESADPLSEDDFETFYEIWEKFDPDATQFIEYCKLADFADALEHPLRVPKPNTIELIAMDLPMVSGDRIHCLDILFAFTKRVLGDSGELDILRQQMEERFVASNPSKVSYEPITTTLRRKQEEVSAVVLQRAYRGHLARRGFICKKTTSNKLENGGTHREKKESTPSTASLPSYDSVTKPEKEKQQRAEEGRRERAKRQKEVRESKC

As for `CC(C)COc1cccc(CN2CCC(c3noc(-c4cc(Cl)ccn4)n3)C2)c1` (stereo not shown) [Compound 53, 4-Chloro-2-{3-[1-(3-isobutoxy-benzyl)-pyrrolidin-3-yl]-[1,2,4]oxadiazol-5-yl}-pyridine], the pIC50 runs as follows: (read-out: Nav1.6 Tonic) less than 4.70; (read-out: Nav1.6 inac) 5.30 to 6.00.

In the case of `Cc1ccc(-c2nc(C3CCN(Cc4cccc(OCC(C)C)c4)C3)no2)nc1` (stereo not shown) [Compound 55, 2-{3-[1-(3-Isobutoxy-benzyl)-pyrrolidin-3-yl]-[1,2,4]oxadiazol-5-yl}-5-methyl-pyridine], the pIC50 (read-out: Nav1.6 Tonic) is less than 4.70 and the pIC50 (read-out: Nav1.6 inac) was 5.30 to 6.00.

`O=C(NCc1ccc(F)c(F)c1)C1CCN(Cc2cccc(Oc3ccccc3)c2)C1` (stereo not shown) [Compound 80, 1-(3-Phenoxy-benzyl)-pyrrolidine-3-carboxylic acid 3,4-difluoro-benzylamide]: the pIC50 runs as follows: (read-out: Nav1.6 Tonic) 4.70 to 5.00; (read-out: Nav1.6 inac) greater than 6.00.

Take `Cc1cccc(Oc2cccc(CN3CCC(F)(C(=O)NCc4ccccn4)C3)c2)c1` (stereo not shown) [Compound 21, 3-Fluoro-1-(3-m-tolyloxy-benzyl)-pyrrolidine-3-carboxylic acid (pyridin-2-ylmethyl)-amide]: the pIC50 is, setting by setting: (read-out: Nav1.6 Tonic) less than 4.70; (read-out: Nav1.6 inac) 5.30 to 6.00.

`O=C(NCc1ccccn1)C1CCN(Cc2cccc(Oc3ccccn3)c2)C1` (stereo not shown) [Compound 4, 1-[3-(Pyridin-2-yloxy)-benzyl]-pyrrolidine-3-carboxylic acid (pyridin-2-ylmethyl)-amide]: the pIC50 is 4.70 to 5.00 (read-out: Nav1.6 Tonic) and greater than 6.00 (read-out: Nav1.6 inac).

As to `C[C@]1(C(=O)NCc2ccccn2)CCN(Cc2cccc(Oc3ccccc3)c2)C1` [Compound 38, (S)-3-methyl-1-(3-phenoxybenzyl)-N-(pyridin-2-ylmethyl)pyrrolidine-3-carboxamide], the pIC50 (read-out: Nav1.6 Tonic) is less than 4.70 and the pIC50 (read-out: Nav1.6 inac) is less than 5.30.

In the case of `CC(C)COc1cccc(CN2CCC(c3noc(Cc4ccccn4)n3)C2)c1` (stereo not shown) [Compound 57, 2-{3-[1-(3-Isobutoxy-benzyl)-pyrrolidin-3-yl]-[1,2,4]oxadiazol-5-ylmethyl}-pyridine], the pIC50 (read-out: Nav1.6 Tonic) was less than 4.70 and the pIC50 (read-out: Nav1.6 inac) was 5.30 to 6.00.

On to `CCNC(=O)C1(C)CCN(C(=O)c2cccc(Oc3ccccc3)c2)C1` (stereo not shown) [Compound 40, 3-Methyl-1-(3-phenoxy-benzoyl)-pyrrolidine-3-carboxylic acid ethylamide], for which the pIC50 is 4.70 to 5.00 (read-out: Nav1.6 Tonic) and greater than 6.00 (read-out: Nav1.6 inac).

Turning to `O=C(C1CN(Cc2cccc(Oc3ccccc3)c2)CCO1)N1CCOCC1` (stereo not shown) [Compound 106, Morpholin-4-yl-[4-(3-phenoxy-benzyl)-morpholin-2-yl]-methanone], the pIC50 reads like this: (read-out: Nav1.6 Tonic) less than 4.70; (read-out: Nav1.6 inac) less than 5.30.

As for `O=C(NCc1ccccn1)C1CCN(Cc2cccc(OCC(F)(F)F)c2)C1` (stereo not shown) [Compound 30, 1-[3-(2,2,2-Trifluoro-ethoxy)-benzyl]-pyrrolidine-3-carboxylic acid (pyridin-2-ylmethyl)-amide], the pIC50 by setting is: (read-out: Nav1.6 Tonic) less than 4.70; (read-out: Nav1.6 inac) greater than 6.00.

Consider `COc1cccc(Oc2cccc(CN3CCC(F)(C(=O)NCc4ccccn4)C3)c2)c1` (stereo not shown) [Compound 23, 3-Fluoro-1-[3-(3-methoxy-phenoxy)-benzyl]-pyrrolidine-3-carboxylic acid (pyridin-2-ylmethyl)-amide], for which the pIC50 was less than 4.70 (read-out: Nav1.6 Tonic) and 5.30 to 6.00 (read-out: Nav1.6 inac).

`Cc1ccc(CNC(=O)C2CCN(Cc3cccc(Oc4ccccc4)c3)C2)o1` (stereo not shown) [Compound 91, 1-(3-Phenoxy-benzyl)-pyrrolidine-3-carboxylic acid (5-methyl-furan-2-ylmethyl)-amide]: the pIC50 is less than 4.70 (read-out: Nav1.6 Tonic) and less than 5.30 (read-out: Nav1.6 inac).

As for `Cc1ccc(Oc2cccc(CN3CCC(C(=O)NCc4ccccn4)C3)c2)cc1` (stereo not shown) [Compound 1, 1-(3-p-Tolyloxy-benzyl)-pyrrolidine-3-carboxylic acid (pyridin-2-ylmethyl)-amide], the pIC50 is, setting by setting: (read-out: Nav1.6 Tonic) less than 4.70; (read-out: Nav1.6 inac) greater than 6.00.

Consider `O=C(NCc1ccccn1)C1CCN(Cc2cccc(Oc3ccccc3F)c2)C1` (stereo not shown) [Compound 14, 1-[3-(2-Fluoro-phenoxy)-benzyl]-pyrrolidine-3-carboxylic acid (pyridin-2-ylmethyl)-amide], for which the pIC50 was less than 4.70 (read-out: Nav1.6 Tonic) and less than 5.30 (read-out: Nav1.6 inac).

Regarding `CC(C)OCc1cccc(CN2CCC(CNC(=O)c3ccccn3)C2)c1` (stereo not shown) [Compound 36, Pyridine-2-carboxylic acid [1-(3-isopropoxymethyl-benzyl)-pyrrolidin-3-ylmethyl]-amide], the pIC50 is less than 4.70 (read-out: Nav1.6 Tonic) and greater than 6.00 (read-out: Nav1.6 inac).

Consider `Cc1cncc(Oc2cccc(CN3CCC(C(=O)NCc4ccccn4)C3)c2)n1` (stereo not shown) [Compound 18, 1-[3-(6-Methyl-pyrazin-2-yloxy)-benzyl]-pyrrolidine-3-carboxylic acid (pyridin-2-ylmethyl)-amide], for which the pIC50 is less than 4.70 (read-out: Nav1.6 Tonic) and less than 5.30 (read-out: Nav1.6 inac).

As for `CC1(C)Cc2cc(CN3CCC(C(=O)NCc4ccccn4)C3)ccc2O1` (stereo not shown) [Compound 32, 1-(2,2-Dimethyl-2,3-dihydro-benzofuran-5-ylmethyl)-pyrrolidine-3-carboxylic acid (pyridin-2-ylmethyl)-amide], the pIC50 reads like this: (read-out: Nav1.6 Tonic) less than 4.70; (read-out: Nav1.6 inac) 5.30 to 6.00.

Take `Cn1ccnc1CNC(=O)C1(C)CCN(Cc2cccc(Oc3ccccc3)c2)C1` (stereo not shown) [Compound 101, 3-Methyl-1-(3-phenoxy-benzyl)-pyrrolidine-3-carboxylic acid (1-methyl-1H-imidazol-2-ylmethyl)-amide]: the pIC50 by setting is: (read-out: Nav1.6 Tonic) less than 4.70; (read-out: Nav1.6 inac) 5.30 to 6.00.

With `CC1(C(=O)NCc2ccccn2)CCCN(Cc2cccc(Oc3ccccc3)c2)C1=O` (stereo not shown) [Compound 110, 3-Methyl-2-oxo-1-(3-phenoxy-benzyl)-piperidine-3-carboxylic acid (pyridin-2-ylmethyl)-amide], the pIC50 (read-out: Nav1.6 Tonic) was 4.70 to 5.00 and the pIC50 (read-out: Nav1.6 inac) is greater than 6.00.

On to `O=C(NCc1ccccn1)C1CCN(Cc2cccc(Oc3ccc(F)cc3)n2)C1` (stereo not shown) [Compound 20, 1-[6-(4-Fluoro-phenoxy)-pyridin-2-ylmethyl]-pyrrolidine-3-carboxylic acid (pyridin-2-ylmethyl)-amide], for which the pIC50 is less than 4.70 (read-out: Nav1.6 Tonic) and less than 5.30 (read-out: Nav1.6 inac).

For the molecule `Cc1ccc(Oc2cccc(CN3CCC(C(=O)NCc4ccccn4)C3)c2)cc1C` (stereo not shown) [Compound 10, 1-[3-(3,4-Dimethyl-phenoxy)-benzyl]-pyrrolidine-3-carboxylic acid (pyridin-2-ylmethyl)-amide], the pIC50 is 4.70 to 5.00 (read-out: Nav1.6 Tonic) and 5.30 to 6.00 (read-out: Nav1.6 inac).

On to `Cc1ccc(CNC(=O)C2CCN(Cc3cccc(Oc4ccccc4)c3)C2)cc1` (stereo not shown) [Compound 83, 1-(3-Phenoxy-benzyl)-pyrrolidine-3-carboxylic acid 4-methyl-benzylamide], for which the pIC50 reads like this: (read-out: Nav1.6 Tonic) less than 4.70; (read-out: Nav1.6 inac) 5.30 to 6.00.

`CC(C)(C)c1ccc(CNC(=O)C2CCN(Cc3cccc(Oc4ccccc4)c3)C2)cc1` (stereo not shown) [Compound 81, 1-(3-Phenoxy-benzyl)-pyrrolidine-3-carboxylic acid 4-tert-butyl-benzylamide]: the pIC50 runs as follows: (read-out: Nav1.6 Tonic) 4.70 to 5.00; (read-out: Nav1.6 inac) greater than 6.00.

In the case of `COc1ccc(Oc2cccc(CN3CCC(C(=O)NCc4ccccn4)C3)n2)cc1` (stereo not shown) [Compound 19, 1-[6-(4-Methoxy-phenoxy)-pyridin-2-ylmethyl]-pyrrolidine-3-carboxylic acid (pyridin-2-ylmethyl)-amide], the pIC50 reads like this: (read-out: Nav1.6 Tonic) less than 4.70; (read-out: Nav1.6 inac) 5.30 to 6.00.

As to `O=C(NCc1ccccn1)C1(Cl)CCN(Cc2cccc(Oc3ccccc3)c2)C1=O` (stereo not shown) [Compound 95, 3-Chloro-2-oxo-1-(3-phenoxy-benzyl)-pyrrolidine-3-carboxylic acid (pyridin-2-ylmethyl)-amide], the pIC50 is less than 4.70 (read-out: Nav1.6 Tonic) and less than 5.30 (read-out: Nav1.6 inac).

In the case of `O=C(NCc1ccccn1)C1CCN(Cc2cccc(Oc3ccc(F)cc3)c2)C1` (stereo not shown) [Compound 13, 1-[3-(4-Fluoro-phenoxy)-benzyl]-pyrrolidine-3-carboxylic acid (pyridin-2-ylmethyl)-amide], the pIC50 is, setting by setting: (read-out: Nav1.6 Tonic) less than 4.70; (read-out: Nav1.6 inac) greater than 6.00.

For the molecule `CC(C)COc1cccc(CN2CCC(n3cc(-c4ccccn4)nn3)C2)c1` (stereo not shown) [Compound 60, 2-{1-[1-(3-Isobutoxy-benzyl)-pyrrolidin-3-yl]-1H-[1,2,3]triazol-4-yl}-pyridine], the pIC50 reads like this: (read-out: Nav1.6 Tonic) less than 4.70; (read-out: Nav1.6 inac) 5.30 to 6.00.

As for `O=C(NCc1ccc(F)cc1F)C1CCN(Cc2cccc(Oc3ccccc3)c2)C1` (stereo not shown) [Compound 78, 1-(3-Phenoxy-benzyl)-pyrrolidine-3-carboxylic acid 2,4-difluoro-benzylamide], the pIC50 runs as follows: (read-out: Nav1.6 Tonic) 4.70 to 5.00; (read-out: Nav1.6 inac) 5.30 to 6.00.

Consider `COc1cccc(Oc2cccc(CN3CCC(C(=O)NCc4ccccn4)C3)c2)c1` (stereo not shown) [Compound 2, 1-[3-(3-Methoxy-phenoxy)-benzyl]-pyrrolidine-3-carboxylic acid (pyridin-2-ylmethyl)-amide], for which the pIC50 by setting is: (read-out: Nav1.6 Tonic) less than 4.70; (read-out: Nav1.6 inac) 5.30 to 6.00.
